Test results: patent US20100028259A1, “USE OF ORGANIC CATION TRANSPORTERS FOR CANCER DIAGNOSIS AND THERAPY” (The Regents of the University of California, priority 2006, published 2010)
Read-outs that look alike come from different tables or passages of the source.

Legend:
MDCK-MOCK cells [1] = experiment: Platinum-DNA adduct formation in MDCK-MOCK cells; type: cell-based, canine
Method: After incubation at 37° C. and 5% CO2 for 2 hours, the cells were washed with ice-cold PBS three times and harvested. The genomic DNA was isolated from the cells and the platinum content associated with DNA was determined by ICP-MS and normalized for DNA content. Data are expressed as mean±SD from a typical experiment performed in triplicate. Two independent experiments were conducted and similar results were obtained.
After incubation, the cells were washed with ice-cold PBS three times and harvested. Genomic DNA was isolated from the harvested cells and the DNA-associated platinum content was determined by ICP-MS and normalized for the DNA content. Data are expressed as mean±SD of three measurements.
The platinum content associated with genomic DNA was determined as described in Samimi et al., Clin. Cancer Res., 10:4661-4669 (2004) with some modifications. Briefly, the cells were grown in 100 mm×20 mm dishes in the culture medium without any antibiotics to over 90% confluence. For HEK 293 cells, poly-D-lysine coated dishes were used. Then, the cells were incubated in the culture medium containing the specified concentrations of the platinum-based compounds at 37° C. in 5% CO2 for 2 hours (or 25 min as specified). In some experiments, phosphate buffer (PB: 1.06 mM KH2PO4, 2.97 mM Na2HPO4, pH 7.4) containing 155 mM NaCl (PB—Cl buffer) or 103 mM Na2SO4 (PB—SO4 buffer) was used instead of the culture medium as specified. For the OCT inhibitor study, the incubation medium (buffer) also contained disopyramide or cimetidine). If PB—Cl or PB—SO4 buffer was used, the cells were washed with the same buffer once before drug incubation. After incubation, the cells were washed with ice-cold PBS, scraped, and pelleted. Genomic DNA was isolated from the cell pellets using the Wizard® Genomic DNA Purification Kit (Promega, Madison, Wis.) following the manufacturer's instructions. Briefly, the cells were lysed with Nuclei Lysis Solution. After RNA digestion and protein precipitation, the lysates were centrifuged and the resulting supernatant was aliquoted. The genomic DNA prepared from two different aliquots of the supernatant was used for platinum and DNA content determination, respectively. For the determination of platinum, the DNA samples were treated with 70% nitric acid at 65° C. and diluted in the same way as described above. The platinum content was analyzed using ICP-MS and the DNA content was measured by absorption spectroscopy.

HEK-hOCT2 cells = experiment: Cellular accumulation of platinum in HEK-hOCT2 cells (ICP-MS); type: in vitro ADME, human; conditions: 2-hr exposure
Method: (§1) For the inhibitor studies, the incubation medium also contained disopyramide (150 μM). […] For the inhibitor studies, the incubation medium also contained cimetidine (1.5 mM). […] After drug exposure, the cells were washed with ice-cold PBS three times and harvested by scraping and centrifugation. The cell-associated platinum was determined by ICP-MS and normalized for protein content. Data are expressed as mean±SD from a single experiment performed in triplicate. Experiments were replicated for OCT1 and OCT2, and similar results were obtained.
(§2) The cellular accumulation of platinum was determined as described in Holzer et al., Mol. Pharmacol., 66:817-823 (2004) with some modifications. Briefly, the cells were grown in 100 mm×20 mm dishes in the culture medium without any antibiotics to over 90% confluence. For HEK 293 cells, poly-D-lysine coated dishes were used. For platinum accumulation, the cells were incubated in the culture medium containing the indicated concentrations of the platinum compounds at 37° C. in 5% CO2 for 2 hr unless specified. After incubation, the dishes were immediately placed on ice and the cells were washed with 6 ml of ice-cold PBS for three times and collected with a rubber policeman. The cell pellets were obtained by centrifugation at 400×g and at 4° C. for 15 min. For the OCT inhibitor studies, the incubation medium also contained the indicated inhibitor (i.e., disopyramide or cimetidine) in addition to the platinum-based compounds. The resulting cell pellets were then dissolved into 200 μl of 70% nitric acid at 65° C. for at least 2.5 hours, and then distilled water containing 10 ppb of iridium (Sigma) and 0.1% Triton X-100 was added to the samples to dilute nitric acid to 7%. The platinum content was measured by inductively plasma coupled mass spectrometry (ICP-MS) in the Analytical Facility at the University of California at Santa Cruz (Santa Cruz, Calif.). Cell lysates from a set of identical cultures were used for BCA protein assay.

SW620 = experiment: MTT drug sensitivity, colon cancer cell line SW620; type: cell-based, human
Method: Cytotoxicity of the platinum-based compounds was measured by MTT (thiazolyl blue tetrazolium bromide) assay. Cells were seeded in 100 μl of the culture medium without any antibiotics in 96-well plates at a predetermined cell density. For HEK 293 cells, poly-D-lysine coated plates were used. […] For the OCT inhibitor studies, the inhibitors (i.e., disopyramide or cimetidine) were added to the medium at a specified concentration immediately before the addition of the platinum-based compounds. After incubation for a specified time period, the drug-containing medium was replaced with fresh, drug-free medium and the incubation was continued for a total of 72 hours (start from the addition of platinum-based compounds). Then, the MTT assay was performed similarly as described in Alley et al., Cancer Res., 48:589-601 (1988). […] The maximal cell growth was the cell growth in the medium without any platinum-based compounds; C is the concentration of the platinum-based compound, and γ is the slope factor.
The cell seeding density was 6,000-, 8,000-, 6,000-, 15,000-12,000- and 4,000 cells/well for HCT116, HT29, RKO, SW620, LS180, and DLD cells, respectively. When cimetidine (1.5 mM) was used, it was added to the wells immediately before the addition of the platinum-based drugs. The resistance factor (RF) was defined as the ratio of the mean IC50 value in the presence to that in the absence of cimetidine. Data are expressed as mean±SD from six measurements, and each measurement was performed in quadruplicate.

MDCK-MOCK cells [2] = experiment: Cellular accumulation of platinum in MDCK-MOCK cells (ICP-MS); type: in vitro ADME, canine; conditions: 2-hr exposure
Method: as §1, §2

In the case of `O=C1[O][Pt]2([NH][C@@H]3CCCC[C@H]3[NH]2)[O]C1=O` [oxaliplatin], the “DNA-associated platinum level in MDCK-MOCK” value (MDCK-MOCK cells [1]; 20 μM, PB—Cl, 25 min) is reported as 0.0034±0.00087 pmol/μg DNA, the “rb in MDCK-MOCK” value (MDCK-MOCK cells [1]; 20 μM, PB—Cl, 25 min) is reported as 1.12±0.29×10^−6 and the “Pt-DNA adduct level in MDCK-MOCK” value (MDCK-MOCK cells [1]; 20 μM, PB—SO4, 25 min) is reported as 0.0032±0.00042 pmol/μg DNA. For the same compound, the “rb in MDCK-MOCK” value (MDCK-MOCK cells [1]; 20 μM, PB—SO4, 25 min) was 1.05±0.14×10^−6, the “platinum-DNA adduct level in MDCK-MOCK” value (MDCK-MOCK cells [1]; 2-hr exposure, oxaliplatin 10 μM, culture medium) was 0.0110±0.0010 pmol/μg DNA and the “effect of disopyramide on platinum-DNA adduct formation in MDCK-MOCK” value (MDCK-MOCK cells [1]; disopyramide 150 μM) was “no effect”. The “cellular platinum accumulation rate in HEK-hOCT2, cimetidine” value (HEK-hOCT2 cells; 0.3 μM, cimetidine 1.5 mM) was 1.80±0.13 pmol/mg protein-hr, the “cellular platinum accumulation rate in HEK-hOCT2” value (HEK-hOCT2 cells; drug 0.3 μM) was 20.2±1.54 pmol/mg protein-hr and the IC50 (SW620; SW620, absence of cimetidine, read-out: IC50 Control) was 2.81 ± 1 µM. The IC50 (SW620; SW620, cimetidine 1.5 mM, read-out: IC50 Cimetidine-treated) was 14.2 ± 2.81 µM, the “cellular platinum accumulation rate in MDCK-MOCK, disopyramide-treated” value (MDCK-MOCK cells [2]; 3 μM, disopyramide 150 μM) was 3.23±0.31 pmol/mg protein-hour and the “cellular platinum accumulation rate in MDCK-MOCK” value (MDCK-MOCK cells [2]; drug 3 μM) was 2.94±0.11 pmol/mg protein-hr.
